In patent publication US20200054587A1, “METHODS AND MATERIALS FOR REDUCING SCARRING ASSOCIATED WITH ARTHROFIBROSIS OR TENDON INJURY” (Mayo Foundation for Medical Education and Research, priority 2018, published 2020):
Like-named read-outs stand apart in the source and are kept apart here.

Experiments:
[1] = cited from earlier work
[2] = system: COL1A1, COL2A1 and COL5A1; assay: qPCR of collagen genes in posterior capsule tissue, rabbit knee arthrofibrosis model; format: in vivo; settings: rabbit posterior capsule tissue at 24 weeks, FIG. 3A
Protocol: (§1) All rabbits underwent luxation (hyperextension) and arthrodesis (fixation) of the operative knee. […] After eight weeks, the arthrodesis was reversed. Rabbits were allowed to roam free in individual spaces (1 m^2) for the entire 24 week duration. Angles of passive extension of operative and contralateral, non-operative limbs were measured at 8, 10, 16, and 24 weeks, using a validated dynamic load cell device. Rabbits were sacrificed at 24 weeks and samples of the posterior capsule were taking from the operative and contralateral, non-operative knee. Data from mRNA extraction and qPCR were obtained to analyze expression of alpha-1 collagen (COL1A1, COL2A1 and COL5A1) and alpha smooth muscle actin (ACTA2), all of which are involved in fibrosis.

[3] = system: knee arthrofibrosis; assay: Rabbit knee arthrofibrosis model, passive range of motion; format: in vivo; settings: 50 mg in gel injected into the joint capsule during surgery
Protocol: as §1

[4] = system: ACTA2; assay: qPCR of alpha smooth muscle actin gene in posterior capsule tissue, rabbit knee arthrofibrosis model; format: in vivo; settings: rabbit posterior capsule tissue at 24 weeks, FIG. 3B
Protocol: as §1

[5] = system: adipose tissue-derived mesenchymal stem cells (aMSC); assay: Live/dead cytotoxicity staining (Calcein AM / Ethidium Homdimer-1); settings: after initial exposure, absence of any dead-cell staining, FIG. 1B
[6] = system: flexor tendon injury; assay: In vivo turkey flexor tendon injury model; settings: 50 mg powder applied to repaired tendon, 6 weeks
Source text: Flexor tendon injuries are common and pose a clinical challenge for functional restoration. Postoperative repair rupture and scar formation results in prolonged work disability for patients. […] Twelve male turkeys underwent surgical flexor tendon cut and repair. […] After sacrifice, digits were collected and analyzed for adhesion formation as well as healing at the macrolevel.

Row | SMILES | solubility ([1]; acetone) | solubility ([1]; alcohol) | solubility ([1]; chloroform) | solubility ([1]; ether) | solubility ([1]; glycerin) | solubility ([1]; water) | collagen (COL1A1, COL2A1 and COL5A1) expression vs control tissue [2] | passive range of motion (ROM), pentamidine vs control rabbits ([3]; 24 weeks, p=0.0082) | passive range of motion (ROM), pentamidine vs control rabbits ([3]; eight weeks, p=0.0303) | ACTA2 gene expression vs control tissue [4] | cytotoxic effect (Ethidium Homdimer-1 staining) [5] | post-operative scar formation (gross anatomy) vs control [6] | adhesion score, 0 (no adhesion) to 8 (very severe) ([6]; all six treated turkeys, FIG. 4)
1 | N=C(N)c1ccc(OCCCCCOc2ccc(C(=N)N)cc2)cc1 [Pentamidine isethionate, 4,4-[1,5-pentanediylbis(oxy)]bis-benzenecarboximidamid] | insoluble | soluble | insoluble | insoluble | soluble | soluble | – | – | – | – | – | – | –
2 | N=C(N)c1ccc(OCCCCCOc2ccc(C(=N)N)cc2)cc1 [pentamidine, 4,4′-[pentane-1,5-diylbis(oxy)]dibenzenecarboximid-amide] | – | – | – | – | – | – | decreased | statistically significant difference | statistically significant difference | decreased | no cytotoxic effect | marked reduction | significantly reduced
